Here are results for 13 compounds from patent publication EP0189142A2, “Arylalkoxyphenyl-allylic alcohols as agents for the treatment of hypersensitive ailments” (USV PHARMACEUTICAL CORPORATION, priority 1985, dated 1986).

The target in experiment [1] is T1, Phospholipase A2 (PLA2) (Rattus norvegicus, UniProt P14423).
T1 construct: obtained by aggregation of purified rat platelets; from tissue; host or cells: rat platelets (material obtained on aggregation)
T1 sequence (P14423 22-146): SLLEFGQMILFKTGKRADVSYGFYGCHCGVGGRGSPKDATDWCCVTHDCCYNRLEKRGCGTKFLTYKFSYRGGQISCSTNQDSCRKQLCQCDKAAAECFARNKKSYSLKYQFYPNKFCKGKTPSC
Briefly: In vitro assay for inhibitors of Phospholipase A2 (PLA2). It is filed as biochemical. As to conditions: PLA2 from aggregated purified rat platelets; 14C-phosphatidylcholine substrate; pH 7.2, 37°C, 30 minutes; read-out: (PLA2) Phospholipase A2 inhibition (I50). The source says:
(§1) Two assays have been developed to test the ability of the invented compounds on the activity of the phospholipases. In one protocol, a procedure is described for testing the inhibitory effects of these compounds on Phospholipase C (PLC), while the other protocol describes a means for testing the inhibitory effect of these compounds on Phospholipase A2 (P^LA2).
Protocol for In Vitro Assay for Inhibitors of Phospholipase A2 Assayed at oH 7.0 (PLA2)
The PLA2 employed in this screen is obtained by aggregation of purified rat platelets. In the enzyme assay phosphatidylcholine having ^14C-labeled palmitate residues at Rl and R2 is employed as substrate. PLA2 acts by cleaving the R2 fatty acid ester bond yielding free fatty acid and lysophosphatidyl choline as follows: [drawing 22]
Following completion of the reaction, the assay medium is acidified and extracted with hexane, which takes up unreacted substrate and free fatty acid product. The hexane extract is passed over a short silica gel column which retains 99% of the phosphatidyl choline. The ^14C-labeled palmitic acid is not retained (90% recovery in eluate) and is collected directly in scintillation counting vials. The released palmitic acid is conveniently quantitated by liquid scintillation spectrometry.
The compounds were tested at 100 uM in a buffer containing 0.3 mM unlabeled phosphatidylcholine (PC), 20-30,000 cpm of ^14C [PC], 100 mM NaCl, 1 mM CaCl2 and 50 mM Tris-HCL adjusted to pH 7.2 with 1 N NaOH. […] The reaction was initiated by addition of the enzyme and it was terminated 30 minutes later by the addition of 100 ml of 1 N HCL.
Following acidification, the complex was extracted with 2 ml of 2-propanol and 2 ml of hexane, vortexed, and allowed to stand until the phases separated. Free fatty acids (FFA) and some unreacted substrate were taken up in the isopropanol-saturated hexane. The hexane phase of the extraction mixture was transferred to a short silica gel column which retained unreacted PC but not the FFA. The column effluent was collected directly in scintillation vials. The columns were washed once with an additional 2 ml of hexane. The radiolabeled FFA were ^quantitated by liquid scintillation spectrometry.

Experiment [2] concerns the target T2, Rat PMN 5-lipoxygenase (Rattus norvegicus, UniProt P12527).
T2 construct: endogenous in cells; host or cells: rat neutrophils (PMN)
T2 sequence (P12527 1-673): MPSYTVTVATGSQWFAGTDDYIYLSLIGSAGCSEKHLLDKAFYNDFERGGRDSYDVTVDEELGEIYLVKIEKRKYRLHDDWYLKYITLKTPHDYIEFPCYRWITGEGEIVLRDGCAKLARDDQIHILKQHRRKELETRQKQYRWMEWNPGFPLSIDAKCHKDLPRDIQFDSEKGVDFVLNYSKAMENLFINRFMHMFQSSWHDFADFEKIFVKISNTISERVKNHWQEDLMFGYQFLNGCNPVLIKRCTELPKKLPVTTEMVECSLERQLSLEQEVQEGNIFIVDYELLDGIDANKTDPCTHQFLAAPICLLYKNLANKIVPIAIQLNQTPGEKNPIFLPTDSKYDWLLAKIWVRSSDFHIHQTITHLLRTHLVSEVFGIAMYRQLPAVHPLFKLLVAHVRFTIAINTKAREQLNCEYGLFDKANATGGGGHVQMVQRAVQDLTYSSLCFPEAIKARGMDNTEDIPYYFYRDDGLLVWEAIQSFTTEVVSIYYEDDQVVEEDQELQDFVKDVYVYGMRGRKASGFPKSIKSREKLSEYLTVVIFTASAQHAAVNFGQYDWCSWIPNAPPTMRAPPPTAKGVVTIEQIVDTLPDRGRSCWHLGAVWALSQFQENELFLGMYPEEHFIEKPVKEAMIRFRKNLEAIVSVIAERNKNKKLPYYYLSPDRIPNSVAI
Briefly: Protocol for detecting inhibitors of the lipoxygenase pathway (5-HETE formation in rat neutrophils). The format is cell-based. As to conditions: suspension of rat neutrophils, 3 minutes at 30°C with [14C]-arachidonic acid and Calcium Ionophore A23187; net 5-HETE produced; read-out: Rat PMN 5-lipoxygenase inhibition (I50). As for the experimental part:
The following protocol describes an assay to detect inhibitors of the lipoxygenase pathway. Such inhibitors are believed to be capable of modulating the biosynthesis of the leukotrienes, a property believed to be useful in treating asthma and inflammatory disease states.
Protocol for Detecting Inhibitors of the Lipoxygenase Pathway
A suspension of rat neutrophils in buffer is incubated for 3 minutes at 30°C with [^14]-arachidonic acid (AA) and Calcium Ionophore A23'187. Citric acid (2M) is used to quench the reaction. Following the addition of a trace amount of (^3H)-5-HETE together with an excess of unlabeled 5-HETE to each tube, the mixture is extracted with chloroform/methanol. The organic layer is washed with dilute acid and an aliquot is transferred to glass tubes and dried. The residue is dissolved in a small volume of chloroform and an aliquot is spotted on silica gel TLC sheets, which are developed with an ethyl acetate/isooctane/water/acetic acid solvent system. The 5-HETE spots are visualized with iodine, cut out and placed in scintillation vials for counting. After adjusting for the extraction efficiency, the amount (pmole) of [^14C]-5-HETE in each of the tubes is quantitated by substracting the net pmoles of 5-HETE in the tubes containing buffer alone (blank) from the pmoles of 5-HETE in the tubes containing […]. The ability of the test compounds to modulate the activity of this enzyme is determined by a decrease or increase in the net amount of 5-HETE produced.

Experiment [3] addresses Phospholipase C (PLC). Briefly: In vitro assay for inhibitors of Phospholipase C (PLC). It is filed as biochemical. As to conditions: PLC from aggregated purified rat platelets (CaCl2, ADP); 3H-phosphatidylinositol substrate; pH 9.0, 37°C, 10 minutes; read-out: (PLC) Phospholipase C inhibition (I50).
Excerpt: as §1
Protocol for In Vitro Assay for Inhibitors of
The PLC employed in this screen is obtained by aggregation of purified rat platelets in the presence of CaCl2 and ADP. In the enzyme assay, phosphatidylinositol having ^3H-labeled arachidonate residues at R2 is employed as substrate. PLC acts by cleaving the phosphate ester bond yielding diglyceride as follows: [drawing 21] ^3H-Phosphatidylinosit-tol ^3H-diglyceride Inositol (cont.)
Following completion of the reaction, the assay medium is acidified and extracted with hexane which takes up unreacted substrate and diglvceride. The hexane extract is passed over a short silica gel column which retains 99% of the phosphatidylinositol. […] The diglyceride is conveniently quantitated by liquid scintillation spectrometry. […]
Following acidification, the samples were extracted with 2 ml of isopropyl alcohol and 2 ml of hexane, vortexed and allowed to stand until the phrases separate. […] The radiolabeled diglycerides were quantitated by liquid scintillation spectrometry.

As for `CC(O)C=Cc1ccc(OCc2ccccc2)cc1` [Compound 21, 4-(D-BenzyloxyDhenyl)-3-buten-2-ol], the figures for the IC50 in experiment [1] and in experiment [2] were 120 µM and 1500 nM, respectively.
For `CC(O)C=Cc1ccc(OCc2ccccc2)cc1OCc1ccccc1` (stereo not drawn) [Compound 22], in that order: 90 µM and 1000 nM.
In the case of `CCCCCC(O)C=Cc1ccc(OCc2ccccc2)cc1OCc1ccccc1` (stereo not drawn) [Compound 23], the IC50 in experiment [2] is 10000 nM.
`CC(C)(C)CC(O)C=Cc1ccc(OCc2ccccc2)cc1OCc1ccccc1` (stereo not drawn) [Compound 24]: the IC50 in experiment [1] amounted to 100 µM; in experiment [2], 300 nM.
For `CC(C)(C)C(O)C=Cc1ccc(OCc2ccccc2)cc1OCc1ccccc1` (stereo not drawn) [Compound 25], in that order: 80 µM and 1100 nM.
As to `CC(O)C=Cc1ccc(OCc2ccccc2)c(OCc2ccccc2)c1` (stereo not drawn) [Compound 28], the IC50 in experiment [2] came out at 2000 nM.
Take `CC(C)(C)C(O)C=Cc1ccc(OCc2ccccc2)c(OCc2ccccc2)c1` (stereo not drawn) [Compound 29]: the IC50 in experiment [2] is 2300 nM.
The same measure, in the same setting: in the case of `CCCCCC(O)C=CC=Cc1ccc(OCc2ccccc2)cc1` (stereo not drawn) [Compound 32] it was 7000 nM; in that of `CC(C)(C)C(O)C=CC=Cc1ccc(OCc2ccccc2)cc1` (stereo not drawn) [Compound 34], 4500 nM.
For the compound `CN(C)CCC(O)C=Cc1ccc(OCc2ccccc2)cc1` (stereo not drawn) [Compound 37], the IC50 in experiment [3] is 24 µM.
On to `CC(O)C=Cc1ccc(OC(c2ccccc2)c2ccccc2)cc1` (stereo not drawn) [Compound 39], for which the IC50 in experiment [1] was 31 µM; in experiment [2] it was 3500 nM.
As for `CC1CCCC(=Cc2ccc(OCc3ccccc3)cc2)C1O` (stereo not drawn) [Compound 40], the IC50 in experiment [1] was determined as 170 µM.
Consider `OCC=Cc1ccc(OCc2ccccc2)cc1OCc1ccccc1` [Compound 42], for which the IC50 in experiment [2] came out at 1400 nM.
